The values below come from ChEMBL document CHEMBL1143467, “Synthesis of potent and selective serotonin 5-HT1B receptor ligands” (Bioorg Med Chem Lett, 2005).

Experiment [1] has as its target Histamine H1 receptor (Homo sapiens, UniProt P35367). Description: Affinity towards cloned Histamine H1 receptor.
The target in experiment [2] is T1, 5-hydroxytryptamine receptor 2C (Homo sapiens, UniProt P28335).
T1 sequence (P28335 whole entry): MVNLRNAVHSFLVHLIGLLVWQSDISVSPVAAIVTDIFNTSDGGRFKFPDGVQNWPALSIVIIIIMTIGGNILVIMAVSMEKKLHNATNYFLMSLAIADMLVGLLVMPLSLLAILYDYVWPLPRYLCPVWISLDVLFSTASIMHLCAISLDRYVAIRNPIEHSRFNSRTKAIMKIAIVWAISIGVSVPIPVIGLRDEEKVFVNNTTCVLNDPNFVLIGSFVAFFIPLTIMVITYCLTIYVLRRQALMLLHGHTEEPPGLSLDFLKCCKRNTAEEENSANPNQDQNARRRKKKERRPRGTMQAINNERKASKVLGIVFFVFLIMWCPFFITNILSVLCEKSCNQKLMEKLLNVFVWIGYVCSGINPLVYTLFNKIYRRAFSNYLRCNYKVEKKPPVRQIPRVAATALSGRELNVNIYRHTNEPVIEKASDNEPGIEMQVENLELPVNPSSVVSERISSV
Description: In vitro binding affinity towards cloned human 5-HT2C receptor using [3H]5-carboximidotryptamine as radioligand.

Experiment [3] has as its target 5-hydroxytryptamine receptor 7 (Homo sapiens, UniProt P34969). Description: In vitro binding affinity towards cloned human 5-HT7 receptor using [3H]5-carboximidotryptamine as radioligand.
Experiment [4] concerns the target T2, Muscarinic acetylcholine receptor M4 (Homo sapiens, UniProt P08173).
T2 sequence (P08173 whole entry): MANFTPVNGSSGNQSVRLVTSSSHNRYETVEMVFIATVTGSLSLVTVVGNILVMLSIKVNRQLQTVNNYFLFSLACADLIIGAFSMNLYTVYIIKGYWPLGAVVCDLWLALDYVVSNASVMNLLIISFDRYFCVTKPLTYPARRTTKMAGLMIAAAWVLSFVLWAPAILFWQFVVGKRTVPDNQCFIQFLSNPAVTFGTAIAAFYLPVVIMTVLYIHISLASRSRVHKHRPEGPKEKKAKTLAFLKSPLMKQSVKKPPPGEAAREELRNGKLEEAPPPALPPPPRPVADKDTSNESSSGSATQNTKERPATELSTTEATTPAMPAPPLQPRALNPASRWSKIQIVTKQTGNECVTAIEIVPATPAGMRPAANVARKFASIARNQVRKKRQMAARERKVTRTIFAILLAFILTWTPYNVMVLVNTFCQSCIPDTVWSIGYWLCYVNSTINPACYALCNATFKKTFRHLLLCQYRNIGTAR
The experiment in a line: Affinity towards cloned Muscarinic acetylcholine receptor M4.

Experiment [5] has as its target D(1B) dopamine receptor (Homo sapiens, UniProt P21918). The experiment in a line: Affinity towards cloned Dopamine receptor D5.
Experiment [6] concerns the target Mu-type opioid receptor (Homo sapiens, UniProt P35372). The experiment in a line: Affinity towards cloned Opioid receptor mu 1.
Experiment [7] deals with Kappa-type opioid receptor (Homo sapiens, UniProt P41145). Description: Affinity towards cloned Opioid receptor kappa 1.
Sequence of Kappa-type opioid receptor (P41145 whole entry): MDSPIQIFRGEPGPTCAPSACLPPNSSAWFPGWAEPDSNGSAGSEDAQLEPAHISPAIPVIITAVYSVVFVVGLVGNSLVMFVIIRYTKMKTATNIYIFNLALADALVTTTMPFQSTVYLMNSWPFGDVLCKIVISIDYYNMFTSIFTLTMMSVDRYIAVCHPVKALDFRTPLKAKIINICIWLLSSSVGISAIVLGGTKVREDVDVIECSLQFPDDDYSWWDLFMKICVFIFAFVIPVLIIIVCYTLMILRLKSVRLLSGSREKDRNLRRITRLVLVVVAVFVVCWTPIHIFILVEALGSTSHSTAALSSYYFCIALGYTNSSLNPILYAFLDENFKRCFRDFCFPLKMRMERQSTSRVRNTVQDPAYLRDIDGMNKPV
Experiment [8] deals with 5-hydroxytryptamine receptor 6 (Homo sapiens, UniProt P50406). The experiment in a line: In vitro binding affinity towards cloned human 5-HT6 receptor using [3H]5-carboximidotryptamine as radioligand.
Sequence of 5-hydroxytryptamine receptor 6 (P50406 whole entry): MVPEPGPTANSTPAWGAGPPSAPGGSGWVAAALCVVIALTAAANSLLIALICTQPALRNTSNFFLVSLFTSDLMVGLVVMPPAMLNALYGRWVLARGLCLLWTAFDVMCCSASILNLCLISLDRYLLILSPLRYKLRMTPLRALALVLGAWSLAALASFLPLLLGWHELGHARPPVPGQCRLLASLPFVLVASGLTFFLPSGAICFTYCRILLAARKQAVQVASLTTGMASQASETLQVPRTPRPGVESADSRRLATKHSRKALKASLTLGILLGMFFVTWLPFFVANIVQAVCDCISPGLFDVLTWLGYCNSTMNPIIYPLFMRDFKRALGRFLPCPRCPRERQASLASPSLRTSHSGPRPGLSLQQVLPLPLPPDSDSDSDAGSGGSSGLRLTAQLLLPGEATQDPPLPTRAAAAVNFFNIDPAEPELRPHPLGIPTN
For experiment [9], the target named is 5-hydroxytryptamine receptor 2A (Homo sapiens, UniProt P28223). The experiment in a line: In vitro binding affinity towards cloned human 5-HT2A receptor using [3H]5-carboximidotryptamine as radioligand.
Sequence of 5-hydroxytryptamine receptor 2A (P28223 whole entry): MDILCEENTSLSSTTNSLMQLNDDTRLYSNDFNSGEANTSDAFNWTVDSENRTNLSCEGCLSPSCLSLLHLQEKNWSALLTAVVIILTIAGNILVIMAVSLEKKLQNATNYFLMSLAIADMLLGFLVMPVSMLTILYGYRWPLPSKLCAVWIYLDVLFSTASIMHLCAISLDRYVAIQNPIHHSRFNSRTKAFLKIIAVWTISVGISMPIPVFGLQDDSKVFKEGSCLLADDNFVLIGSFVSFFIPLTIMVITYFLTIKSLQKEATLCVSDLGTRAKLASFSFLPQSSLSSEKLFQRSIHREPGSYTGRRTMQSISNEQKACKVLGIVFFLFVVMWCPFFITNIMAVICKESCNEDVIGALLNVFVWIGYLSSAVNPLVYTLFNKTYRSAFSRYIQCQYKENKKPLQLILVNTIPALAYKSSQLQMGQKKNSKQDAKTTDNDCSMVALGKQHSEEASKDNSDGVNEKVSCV
Experiment [10] concerns the target D(1A) dopamine receptor (Homo sapiens, UniProt P21728). Description: Affinity towards cloned Dopamine receptor D1.
In experiment [11] the target is Delta-type opioid receptor (Homo sapiens, UniProt P41143). Description: Affinity towards cloned Opioid receptor delta 1.
Sequence of Delta-type opioid receptor (P41143 whole entry): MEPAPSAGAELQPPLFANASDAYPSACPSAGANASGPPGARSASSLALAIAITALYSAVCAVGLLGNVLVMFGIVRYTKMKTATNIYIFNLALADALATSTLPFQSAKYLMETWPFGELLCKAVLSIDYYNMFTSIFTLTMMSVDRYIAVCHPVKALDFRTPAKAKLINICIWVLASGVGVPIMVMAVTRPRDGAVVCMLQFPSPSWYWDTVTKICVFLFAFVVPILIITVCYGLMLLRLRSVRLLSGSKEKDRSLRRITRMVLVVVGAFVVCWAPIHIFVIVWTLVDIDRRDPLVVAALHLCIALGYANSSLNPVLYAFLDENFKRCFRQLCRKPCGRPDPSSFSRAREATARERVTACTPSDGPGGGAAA
Experiment [12] deals with Muscarinic acetylcholine receptor M3 (Homo sapiens, UniProt P20309). The experiment in a line: Affinity towards cloned Muscarinic acetylcholine receptor M3.
Sequence of Muscarinic acetylcholine receptor M3 (P20309 whole entry): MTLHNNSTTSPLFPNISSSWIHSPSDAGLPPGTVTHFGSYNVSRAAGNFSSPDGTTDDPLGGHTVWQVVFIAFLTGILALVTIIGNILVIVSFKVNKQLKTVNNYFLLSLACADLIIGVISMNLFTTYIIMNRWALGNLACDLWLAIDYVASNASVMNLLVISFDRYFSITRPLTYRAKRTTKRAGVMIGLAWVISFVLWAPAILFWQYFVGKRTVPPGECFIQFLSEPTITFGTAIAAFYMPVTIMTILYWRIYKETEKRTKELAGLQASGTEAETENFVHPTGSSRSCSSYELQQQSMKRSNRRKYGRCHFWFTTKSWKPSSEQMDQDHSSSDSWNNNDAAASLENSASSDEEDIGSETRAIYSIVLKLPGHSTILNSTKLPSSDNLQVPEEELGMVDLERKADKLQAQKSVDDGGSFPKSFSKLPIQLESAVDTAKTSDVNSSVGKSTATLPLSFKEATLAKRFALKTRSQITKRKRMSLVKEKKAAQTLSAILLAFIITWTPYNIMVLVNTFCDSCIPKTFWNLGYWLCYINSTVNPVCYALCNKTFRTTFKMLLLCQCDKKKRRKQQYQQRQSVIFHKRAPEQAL
Experiment [13] has as its target 5-hydroxytryptamine receptor 1B (Homo sapiens, UniProt P28222). The experiment in a line: In vitro binding affinity towards cloned human 5-HT1B receptor using [3H]5-carboximidotryptamine as radioligand.
The target of experiment [14] is T3, D(4) dopamine receptor (Homo sapiens, UniProt P21917).
T3 sequence (P21917 whole entry): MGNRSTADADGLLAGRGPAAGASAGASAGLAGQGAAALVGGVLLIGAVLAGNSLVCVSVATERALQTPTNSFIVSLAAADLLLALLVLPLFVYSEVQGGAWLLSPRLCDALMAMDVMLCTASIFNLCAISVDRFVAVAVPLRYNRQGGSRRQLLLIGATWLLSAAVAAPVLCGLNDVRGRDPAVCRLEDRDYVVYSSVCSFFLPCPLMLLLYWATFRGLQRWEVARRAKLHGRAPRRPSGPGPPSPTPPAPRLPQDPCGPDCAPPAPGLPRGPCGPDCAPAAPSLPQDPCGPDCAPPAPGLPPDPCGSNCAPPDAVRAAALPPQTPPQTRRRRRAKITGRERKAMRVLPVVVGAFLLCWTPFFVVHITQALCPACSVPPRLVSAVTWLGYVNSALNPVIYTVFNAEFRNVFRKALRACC
The experiment in a line: Affinity towards cloned Dopamine receptor D4.

For experiment [15], the target named is D(3) dopamine receptor (Homo sapiens, UniProt P35462). The experiment in a line: Affinity towards cloned Dopamine receptor D3.
For experiment [16], the target named is T4, Muscarinic acetylcholine receptor M1 (Homo sapiens, UniProt P11229).
T4 sequence (P11229 whole entry): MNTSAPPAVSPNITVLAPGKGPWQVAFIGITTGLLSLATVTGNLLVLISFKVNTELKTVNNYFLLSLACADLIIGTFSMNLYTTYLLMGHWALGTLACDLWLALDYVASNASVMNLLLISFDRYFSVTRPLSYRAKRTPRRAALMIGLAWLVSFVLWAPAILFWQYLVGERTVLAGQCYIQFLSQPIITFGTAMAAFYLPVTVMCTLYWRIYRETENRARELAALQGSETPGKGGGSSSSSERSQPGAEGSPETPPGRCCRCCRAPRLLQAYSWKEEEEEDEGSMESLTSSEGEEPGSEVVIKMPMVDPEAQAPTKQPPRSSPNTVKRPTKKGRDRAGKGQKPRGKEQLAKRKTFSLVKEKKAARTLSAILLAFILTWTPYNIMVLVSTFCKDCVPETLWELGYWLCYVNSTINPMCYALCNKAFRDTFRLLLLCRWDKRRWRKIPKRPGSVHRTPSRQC
Description: Affinity towards cloned Muscarinic acetylcholine receptor M1.

Experiment [17] has as its target T5, Muscarinic acetylcholine receptor M5 (Homo sapiens, UniProt P08912).
T5 sequence (P08912 whole entry): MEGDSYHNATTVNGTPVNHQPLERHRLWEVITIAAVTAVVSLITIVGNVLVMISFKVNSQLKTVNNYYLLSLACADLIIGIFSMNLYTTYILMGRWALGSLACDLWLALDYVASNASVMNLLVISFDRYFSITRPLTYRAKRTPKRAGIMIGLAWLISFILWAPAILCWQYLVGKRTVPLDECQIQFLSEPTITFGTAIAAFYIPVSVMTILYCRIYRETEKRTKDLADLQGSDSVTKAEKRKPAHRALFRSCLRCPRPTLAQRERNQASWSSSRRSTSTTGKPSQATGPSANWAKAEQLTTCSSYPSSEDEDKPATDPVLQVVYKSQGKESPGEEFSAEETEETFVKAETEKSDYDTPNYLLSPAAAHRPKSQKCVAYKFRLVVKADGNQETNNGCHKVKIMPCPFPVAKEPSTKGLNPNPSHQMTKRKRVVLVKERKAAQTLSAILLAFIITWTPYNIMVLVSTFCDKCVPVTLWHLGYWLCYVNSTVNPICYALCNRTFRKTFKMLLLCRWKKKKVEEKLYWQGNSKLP
Description: Affinity towards cloned Muscarinic acetylcholine receptor M5.

The target of experiment [18] is 5-hydroxytryptamine receptor 1D (Homo sapiens, UniProt P28221). The experiment in a line: In vitro binding affinity towards cloned human 5-HT1D receptor using [3H]5-carboximidotryptamine as radioligand.
Sequence of 5-hydroxytryptamine receptor 1D (P28221 whole entry): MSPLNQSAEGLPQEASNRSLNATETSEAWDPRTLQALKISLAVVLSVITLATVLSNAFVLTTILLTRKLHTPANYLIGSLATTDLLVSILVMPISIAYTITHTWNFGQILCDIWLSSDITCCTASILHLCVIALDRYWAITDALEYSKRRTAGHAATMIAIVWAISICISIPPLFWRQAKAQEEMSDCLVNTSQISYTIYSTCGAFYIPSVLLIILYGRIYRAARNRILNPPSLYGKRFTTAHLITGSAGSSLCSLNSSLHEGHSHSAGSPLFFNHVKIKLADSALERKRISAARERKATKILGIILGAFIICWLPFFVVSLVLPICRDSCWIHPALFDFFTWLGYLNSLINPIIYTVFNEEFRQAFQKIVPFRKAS
Experiment [19] is described as follows: Affinity towards cloned Nicotinic acetylcholine receptor.
In experiment [20] the target is T6, Muscarinic acetylcholine receptor M2 (Homo sapiens, UniProt P08172).
T6 sequence (P08172 whole entry): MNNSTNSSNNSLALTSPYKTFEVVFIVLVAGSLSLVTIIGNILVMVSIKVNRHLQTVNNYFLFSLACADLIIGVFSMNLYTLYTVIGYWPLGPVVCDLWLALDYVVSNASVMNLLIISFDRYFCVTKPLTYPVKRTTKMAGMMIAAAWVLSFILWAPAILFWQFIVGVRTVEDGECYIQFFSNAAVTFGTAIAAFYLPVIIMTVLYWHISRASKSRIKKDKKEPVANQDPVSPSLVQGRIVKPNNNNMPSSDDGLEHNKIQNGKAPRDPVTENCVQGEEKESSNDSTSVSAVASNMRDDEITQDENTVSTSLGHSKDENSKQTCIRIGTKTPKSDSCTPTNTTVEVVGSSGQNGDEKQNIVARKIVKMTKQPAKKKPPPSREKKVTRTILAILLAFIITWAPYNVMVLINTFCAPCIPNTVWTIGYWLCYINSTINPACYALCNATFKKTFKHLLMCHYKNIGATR
The experiment in a line: Affinity towards cloned Muscarinic acetylcholine receptor M2.

Experiment [21] has as its target D(2) dopamine receptor (Homo sapiens, UniProt P14416). The experiment in a line: Affinity towards cloned Dopamine receptor D2.

Sequence of D(1B) dopamine receptor (P21918 whole entry): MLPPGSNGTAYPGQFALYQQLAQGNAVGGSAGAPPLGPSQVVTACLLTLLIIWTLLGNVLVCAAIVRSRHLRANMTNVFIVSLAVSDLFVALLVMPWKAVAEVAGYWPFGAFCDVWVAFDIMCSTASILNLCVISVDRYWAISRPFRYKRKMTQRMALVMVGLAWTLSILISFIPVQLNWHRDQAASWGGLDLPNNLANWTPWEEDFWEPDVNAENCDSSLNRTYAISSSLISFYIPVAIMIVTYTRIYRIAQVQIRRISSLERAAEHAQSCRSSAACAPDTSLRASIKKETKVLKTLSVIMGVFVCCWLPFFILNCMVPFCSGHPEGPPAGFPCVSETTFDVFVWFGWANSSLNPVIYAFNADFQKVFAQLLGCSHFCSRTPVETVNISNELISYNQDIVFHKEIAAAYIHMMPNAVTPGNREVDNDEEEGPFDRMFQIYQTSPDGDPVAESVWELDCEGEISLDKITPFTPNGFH
Sequence of 5-hydroxytryptamine receptor 7 (P34969 whole entry): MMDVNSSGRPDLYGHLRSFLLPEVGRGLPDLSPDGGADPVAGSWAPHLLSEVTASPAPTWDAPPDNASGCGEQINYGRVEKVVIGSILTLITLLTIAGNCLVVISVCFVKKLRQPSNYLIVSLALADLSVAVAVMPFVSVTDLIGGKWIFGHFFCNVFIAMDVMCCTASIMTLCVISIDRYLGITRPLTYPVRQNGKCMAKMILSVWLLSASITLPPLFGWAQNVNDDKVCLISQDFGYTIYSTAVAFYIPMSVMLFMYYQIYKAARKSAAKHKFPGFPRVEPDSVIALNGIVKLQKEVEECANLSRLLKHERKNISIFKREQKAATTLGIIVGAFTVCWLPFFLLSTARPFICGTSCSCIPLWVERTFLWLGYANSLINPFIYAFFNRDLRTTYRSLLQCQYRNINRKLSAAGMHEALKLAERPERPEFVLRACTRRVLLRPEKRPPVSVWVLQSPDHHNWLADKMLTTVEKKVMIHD
Sequence of Histamine H1 receptor (P35367 whole entry): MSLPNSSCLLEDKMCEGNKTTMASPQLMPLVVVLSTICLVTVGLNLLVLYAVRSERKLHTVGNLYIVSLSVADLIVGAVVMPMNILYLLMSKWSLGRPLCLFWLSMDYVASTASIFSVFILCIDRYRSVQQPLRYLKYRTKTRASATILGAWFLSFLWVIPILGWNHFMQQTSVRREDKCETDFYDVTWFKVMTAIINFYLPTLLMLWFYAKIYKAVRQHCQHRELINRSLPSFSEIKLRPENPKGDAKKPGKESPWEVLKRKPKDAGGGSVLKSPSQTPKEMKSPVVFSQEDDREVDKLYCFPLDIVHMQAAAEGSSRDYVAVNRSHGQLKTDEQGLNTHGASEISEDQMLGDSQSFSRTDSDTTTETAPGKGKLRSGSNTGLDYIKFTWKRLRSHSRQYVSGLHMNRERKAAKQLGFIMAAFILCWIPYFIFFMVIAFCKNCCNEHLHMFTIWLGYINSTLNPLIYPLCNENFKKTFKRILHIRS
Sequence of D(2) dopamine receptor (P14416 whole entry): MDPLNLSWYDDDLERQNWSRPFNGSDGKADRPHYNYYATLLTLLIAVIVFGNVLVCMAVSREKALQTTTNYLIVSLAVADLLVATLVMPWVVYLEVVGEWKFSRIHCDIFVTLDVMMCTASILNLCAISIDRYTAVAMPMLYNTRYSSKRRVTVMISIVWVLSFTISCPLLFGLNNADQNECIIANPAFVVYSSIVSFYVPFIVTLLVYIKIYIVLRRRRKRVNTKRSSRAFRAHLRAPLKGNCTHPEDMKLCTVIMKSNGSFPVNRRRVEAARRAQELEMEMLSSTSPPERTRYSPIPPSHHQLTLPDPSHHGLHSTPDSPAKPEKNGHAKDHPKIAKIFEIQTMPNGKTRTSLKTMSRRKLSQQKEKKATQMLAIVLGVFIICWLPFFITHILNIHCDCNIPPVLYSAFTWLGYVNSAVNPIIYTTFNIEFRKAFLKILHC
Sequence of D(1A) dopamine receptor (P21728 whole entry): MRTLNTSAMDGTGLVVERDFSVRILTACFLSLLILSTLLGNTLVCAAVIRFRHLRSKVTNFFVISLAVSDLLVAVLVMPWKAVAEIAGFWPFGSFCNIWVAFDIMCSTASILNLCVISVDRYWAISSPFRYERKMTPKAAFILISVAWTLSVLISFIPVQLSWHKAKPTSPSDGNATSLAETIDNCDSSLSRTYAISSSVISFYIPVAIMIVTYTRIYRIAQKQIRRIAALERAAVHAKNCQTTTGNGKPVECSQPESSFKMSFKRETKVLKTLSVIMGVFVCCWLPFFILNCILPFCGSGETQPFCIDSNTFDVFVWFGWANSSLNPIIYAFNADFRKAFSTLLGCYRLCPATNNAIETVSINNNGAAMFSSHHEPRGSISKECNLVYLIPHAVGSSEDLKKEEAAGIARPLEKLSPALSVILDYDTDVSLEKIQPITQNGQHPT

Regarding `COc1ccc(NC(=O)N2CCN(c3ccccc3OC)CC2)cc1N1CCN(C)CC1`, the Ki in experiment [1] was over 10 µM; in experiment [2], 1.94 µM; in [3], 1.41 µM; in experiment [4], over 10 µM; in [5], over 10 µM; in experiment [6], over 10 µM. Also, the inhibitory constant (Ki) was over 10 µM in experiment [7]; 2.41 µM in [8]; 6.74 µM in experiment [9]; over 10 µM in experiment [10]; over 10 µM in [11]; over 10 µM in experiment [12]. Also, the inhibition constant Ki in [13] was 0.0124 µM; in experiment [14], over 10 µM; in experiment [15], over 10 µM; in experiment [16] it was over 10 µM; in experiment [17] it was over 10 µM; in experiment [18], 0.106 µM. The Ki in experiment [19], in [20] and in [21] was over 10 µM in each case.

Broadly, the Ki is a measure of affinity in units of concentration, obtained from inhibition or displacement. Higher therefore signals weaker binding.
